These results are taken from patent US9510597B2, “Microbicidal composition” (Dow Global Technologies LLC, priority 2012, dated 2016).

Holding throughout (format): cell-based
Assay [1] has as its system Escherichia coli (ATCC #8739). Put plainly: Minimum Kill Concentration (MKC) repeated challenge test, bacteria. As to conditions: for MIC: Escherichia coli; for Minimum Inhibitory Concentration (ppm) MBIT: MBIT alone (1:0) or MBIT portion of the mixture. The procedure:
(§1) The synergism of the biocides combination of the present invention was determined using the method described by Kull, F. C, et. all in Applied Microbiology 9:538-541 (1961). […] In this invention, two different approaches of synergistic study were conducted. One synergistic study is determined based on the minimum inhibitory concentration (MIC), the lowest concentration of a biocide prevents the growth of tested microorganism under a specific set of conditions. The second study was based on three to four consecutive challenge testing. This test was conducted to take biocide mode of action and speed of kill into a consideration.
(§2) MKC evaluations were utilized to determine the synergy of MBIT with the co-biocides DXN (6-Acetoxy-2,4-dimethyl-m-dioxane) and THNM (2-Hydroxymethyl-2-nitro-1,3-propanediol) due to the inability to evaluate these particular biocide chemistries in MIC evaluations. The following test methods were designed for the evaluation of the aforementioned synergistic combinations. The results can be found in Tables 7 and 8.
Testing began (day 0) by applying sterile water, supplemented with 2.0% TSB, to each well of a 96-well microtiter plate. Various concentrations of MBIT alone, the co-biocide alone, or combinations of both biocide chemistries, were added to individual wells of the microtiter plate followed by addition of Escherichia coli (ATCC #8739) at a final concentration of 5×10^4 CFU/mL. Equivalent inoculations were applied on days 7, 14 and 21 of the study. To determine the extent of bacterial kill, an aliquot (20 μl) of each sample was taken on days 1, 7, 8, 14, 15, 21, 22 and transferred to tryptic soy broth (180 μl). After 48 hours of incubation at 30° C., bacterial kill (to a maximum detection limit of 5×10^1 CFU/mL) was visually determined by the presence or lack of turbidity within the TSB.

Assay [2] concerns Escherichia coli (ATCC #8739). Briefly: Minimum Inhibitory Concentration (MIC) synergy study, bacteria. As to conditions: for Minimum Inhibitory Concentration (ppm) MBIT: E. coli, MBIT alone (1:0) or MBIT portion of the mixture. The procedure: as §1
(§3) The microorganisms tested are Escherichia coli (E. coli, ATCC #8739), yeast, Candida albicans (c. albicans, ATCC #10231) and mold, Aspergillus niger (a. niger, ATCC #16404). The final concentration of microorganisms in the tested media is about 10^4 cfu/mL
(§4) MBIT synergy with a secondary biocide was determined by evaluating the minimum biocide or biocide blend concentration required to inhibit microbial growth. All studies were conducted using a 96 well microtiter plate format. For all studies, 200 μl of microbial growth media, containing various concentrations of MBIT alone, the secondary biocide alone, or combinations of both biocide chemistries, was added to individual wells of a microtiter plate. Specifically, Tryptic Soy Broth (TSB) was utilized for bacteria (E. coli, ATCC #8739), Yeast Malt Extract Broth (YMB) for yeast (Candida albicans, ATCC #10231) and Potato Dextrose Broth (PDB) for mold (Aspergillus niger, ATCC #16404). Test organisms, at a final concentration of 10^4 CFU/mL or 10^4 spores/mL, were applied to each well in parallel experiments to initiate the MIC evaluations. Growth medium containing no biocide was utilized as a control in each experimental setup to confirm the growth viability of each organism. Eight concentrations (2-fold dilutions) of each individual biocide were evaluated in the microbial growth inhibition studies in addition to the 64 possible combinations of these biocide concentrations. Evaluation of the individual biocide concentrations is required to achieve an inhibitory concentration end point for synergy index calculation. […] Individual wells were scored as growth or no growth based on visual organism growth turbidity.

For assay [3], the system named is Candida albicans (ATCC #10231). Put plainly: Minimum Inhibitory Concentration (MIC) synergy study, yeast. Conditions: for MIC: Candida albicans; for Minimum Inhibitory Concentration (ppm) MBIT: C. albicans, MBIT alone (1:0) or MBIT portion of the mixture. Here is the method: as §1, §3, §4
The test system of assay [4] is Aspergillus niger (ATCC #16404). Put plainly: Minimum Inhibitory Concentration (MIC) synergy study, mold. Conditions: for Minimum Inhibitory Concentration (ppm) MBIT: A. niger, MBIT alone (1:0) or MBIT portion of the mixture. Here is the method: as §1, §3, §4
Assay [5] concerns Candida albicans (ATCC #10231). Briefly: Minimum Kill Concentration (MKC) repeated challenge test, yeast. The procedure:
as §1, §2
Testing began (day 0) by applying sterile water, supplemented with 2.0% yeast malt extract broth, to each well of a 96-well microtiter plate. […] After 48 hours of incubation at 30° C., yeast kill (to a maximum detection limit of 5×10^1 CFU/mL) was visually determined by the presence or lack of turbidity within the YMB.

In assay [6] the test system is Aspergillus niger (ATCC #16404). Put plainly: Minimum Kill Concentration (MKC) repeated challenge test, mold. Here is the method: as §1, §2
Testing began (day 0) by applying sterile water, supplemented with 2.0% potato dextrose broth, to each well of a 96-well microtiter plate. […] After 48-96 hours of incubation at 30° C., mold kill (to a maximum detection limit of 5×10^1 spores/mL) was visually determined by the presence or lack of turbidity within the PDB.

Each structure is given as a SMILES string. Counter-ions that a name gives are not always drawn.

For `O=[N+]([O-])C(CO)(CO)CO` [THNM, 2-Hydroxymethyl-2-nitro-1,3-propanediol], the MIC in assay [1] (ATCC8739, 504 h, Table 8, kill of E. coli at day 21, THNM alone (0:1) or value printed for the mixture, read-out: Minimum Inhibitory Concentration (ppm) THMN) was found to be 125 µg/mL.

On to `CCCCCCCCCCCCNC(=N)N` [DDG, Dodecylguanidine hydrochloride], for which the MIC was determined as 875 µg/mL in assay [2] (Escherichia coli, ATCC8739, read-out: Minimum Inhibitory Concentration (ppm) DDG); 2000 µg/mL in assay [3] (ATCC10231, read-out: Minimum Inhibitory Concentration (ppm) DDG); 750 µg/mL in assay [4] (Aspergillus niger, ATCC16404, read-out: Minimum Inhibitory Concentration (ppm) DDG).

Regarding `[Na+].[O-]c1ccccc1-c1ccccc1` [NaOPP, sodium ortho-phenylphenate], in assay [4] (Table 4, A. niger, NaOPP alone (0:1) or NaOPP portion of the mixture), the “Minimum Inhibitory Concentration (ppm) NaOPP” value amounted to 200 ppm.

Regarding `CC(=O)OC1CC(C)OC(C)O1` (stereo not drawn) [DXN, 6-Acetoxy-2,4-dimethyl-m-dioxane], the MIC in assay [1] (ATCC8739, 168 h, Table 7, kill of E. coli at day 7, DXN alone (0:1) or DXN portion of the mixture, read-out: Minimum Inhibitory Concentration (ppm) DXN) was determined as 875 µg/mL; in assay [5] (Candida albicans, ATCC10231, 504 h, Table 7, kill of C. albicans at day 21, DXN alone (0:1) or DXN portion of the mixture, read-out: Minimum Inhibitory Concentration (ppm) DXN), 2000 µg/mL; in assay [6] (Aspergillus niger, ATCC16404, 504 h, Table 7, kill of A. niger at Day 21, DXN alone (0:1) or DXN portion of the mixture, read-out: Minimum Inhibitory Concentration (ppm) DXN) it was 750 µg/mL.

Take `[Na+].[O-][n+]1ccccc1[S-]` [NaPT, Sodium pyrithione]: the “Minimum Inhibitory Concentration (ppm) NaPT” value in assay [2] (Table 3, E. coli, NaPT alone (0:1) or NaPT portion of the mixture) is 2.5 ppm; in assay [4] (Table 3, A. niger, NaPT alone (0:1) or NaPT portion of the mixture), 25 ppm.

Take `CCNc1nc(NC(C)(C)C)nc(SC)n1` [Terbutryn]: in assay [3] (ATCC10231, Table 5, C. albicans, Terbutryn alone (0:1) or Terbutryn portion of the mixture, read-out: Minimum Inhibitory Concentration (ppm) Terbutryn), the MIC is more than 20000 µg/mL.

On to `Cn1sc2ccccc2c1=O` [MBIT, N-methyl-1,2-benzisothiazolin-3-one], for which the “Minimum Inhibitory Concentration (ppm) MBIT” value in assay [2] (Table 1, MBIT/DDG study) worked out at 62.5 ppm; in assay [2] (Table 2, MBIT/PHMB study) it was 12.5 ppm; in assay [2] (Table 3, MBIT/NaPT study), 25 ppm; in assay [3] (Table 1, MBIT/DDG study), 6.25 ppm; in assay [3] (Table 2, MBIT/PHMB study), 0.3125 ppm; in assay [3] (Table 5, MBIT/Terbutryn study), 3 ppm. The “Minimum Inhibitory Concentration (ppm) MBIT” value in assay [4] (Table 1, MBIT/DDG study) amounted to 10 ppm; in assay [4] (Table 3, MBIT/NaPT study) it was 6.3 ppm; in assay [4] (Table 4, MBIT/NaOPP study), 6.3 ppm; in assay [1] (Table 7, MBIT/DXN study, kill of E. coli at day 7), 62.5 ppm; in assay [1] (Table 8, MBIT/THNM study, kill of E. coli at day 21), 125 ppm; in assay [5] (Table 7, MBIT/DXN study, kill of C. albicans at day 21, MBIT alone (1:0) or MBIT portion of the mixture), 6.25 ppm. For the same compound, the “Minimum Inhibitory Concentration (ppm) MBIT” value in assay [6] (Table 7, MBIT/DXN study, kill of A. niger at Day 21, MBIT alone (1:0) or MBIT portion of the mixture) came to 10 ppm.
